Drawing on US20240150346A1, “CLASS OF HETEROAROMATIC COMPOUND, PREPARATION METHOD THEREFOR AND USE THEREOF” (INNOVSTONE THERAPEUTICS LIMITED, priority 2021, published 2024), this text covers EC50 for 38 molecules.

This assay addresses T1, human-derived receptor TLR7 (Homo sapiens, UniProt Q9NYK1).
T1 construct: host or cells: HEK-Blue hTLR7 cells (HEK293-derived reporter line)
T1 sequence (Q9NYK1 27-1049): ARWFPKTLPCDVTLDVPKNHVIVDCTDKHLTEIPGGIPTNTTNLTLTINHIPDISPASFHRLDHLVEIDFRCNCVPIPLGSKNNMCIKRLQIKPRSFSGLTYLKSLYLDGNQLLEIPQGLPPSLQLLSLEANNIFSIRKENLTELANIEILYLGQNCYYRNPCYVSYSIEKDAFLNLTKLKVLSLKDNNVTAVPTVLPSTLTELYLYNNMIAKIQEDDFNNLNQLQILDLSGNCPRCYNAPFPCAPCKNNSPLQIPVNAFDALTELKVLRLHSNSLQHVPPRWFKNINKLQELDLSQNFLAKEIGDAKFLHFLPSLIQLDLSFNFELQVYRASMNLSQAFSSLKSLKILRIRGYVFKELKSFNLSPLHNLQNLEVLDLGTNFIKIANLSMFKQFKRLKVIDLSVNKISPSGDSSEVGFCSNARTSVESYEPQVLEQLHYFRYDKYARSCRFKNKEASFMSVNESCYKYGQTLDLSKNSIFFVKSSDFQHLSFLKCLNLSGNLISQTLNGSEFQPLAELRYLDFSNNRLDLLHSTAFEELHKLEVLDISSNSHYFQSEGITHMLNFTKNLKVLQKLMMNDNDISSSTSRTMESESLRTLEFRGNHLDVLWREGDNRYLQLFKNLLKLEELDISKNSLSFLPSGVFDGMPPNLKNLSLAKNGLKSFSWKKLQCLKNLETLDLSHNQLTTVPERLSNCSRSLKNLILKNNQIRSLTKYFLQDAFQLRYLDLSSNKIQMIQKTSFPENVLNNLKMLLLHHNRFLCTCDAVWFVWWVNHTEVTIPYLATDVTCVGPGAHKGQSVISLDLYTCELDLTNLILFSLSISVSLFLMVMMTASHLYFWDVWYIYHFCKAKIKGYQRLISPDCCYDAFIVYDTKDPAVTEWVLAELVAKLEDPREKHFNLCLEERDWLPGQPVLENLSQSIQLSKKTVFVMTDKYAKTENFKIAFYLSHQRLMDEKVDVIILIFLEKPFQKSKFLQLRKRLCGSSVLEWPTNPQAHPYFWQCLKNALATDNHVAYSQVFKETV
The experiment in a line: Assay on agonistic activity for human-derived receptor TLR7 (HEK-Blue hTLR7 cells, HEK-Blue Detection Medium). It counts as cell-based. The following applies: 16 h incubation, absorbance at 655 nm, read-out: EC50. As for the experimental part:
HEK-Blue™ hTLR7 cells (InvivoGen, hkb-htlr7) were cultured in a DMEM complete medium (Gibco, 12100) containing 10% FBS (Invitrogen, 10099141), 1% P/S (Invitrogen, 15140122), 10 μg/mL Blasticidin (InvivoGen, ant-bl-1), 100 μg/mL Zeocin (InvivoGen, ant-zn-1), and 100 μg/mL Normocin (InvivoGen, ant-nr-1). The cells were cultured in an incubator at 37° C. with 5% CO2. When HEK-Blue™ hTLR7 cells reached a growth density of 70%-80%, cell passage was needed.
The agonistic activity for the human-derived receptor TLR7 by HEK-Blue™ hTLR7 cells was assayed by HEK-Blue™ Detection Medium (InvivoGen, hd-det2). First, a bag of HEK-Blue™ Detection Medium powder was dissolved in 50 mL of ultra-pure sterile water for complete dissolution, and then the dissolved medium was filtered into a new 50 mL centrifuge tube through a 0.22 μm filter. Finally, antibiotics were added into the filtered detection medium until the final concentration was 1% for P/S and 100 μg/mL for Normocin. HEK-Blue™ Detection Medium was pre-heated to 37° C. in advance on the day of the assay on the activity for the TLR7 receptor, and the temperature was always maintained at 37° C.
The compound powder was dissolved in 100% DMSO (Sigma, D2650-100ML) to obtain a 10 mM stock solution, and the compound was completely dissolved by shaking with an oscillator. The stock solution of the compound was subjected to a 5-fold dilution to 2 mM with 100% DMSO. This was followed by a 3-fold serial dilution for a total of 8 concentration gradients. Then, each of the concentration gradients was subjected to a 20-fold dilution to 100 μM, 33.3 μM, 11.1 μM, 3.7 μM, 1.23 μM, […], 0.114 μM, and 0.05 μM using HEK-Blue™ Detection Medium. 20 μL of each of the dilutions was added to a 96-well cell culture plate (Corning, 3599).
On the day of the assay on the agonistic activity for the human-detived receptor TLR7, HEK-Blue™ hTLR7 cells has a growth density of 70%-80%, and the cell medium was removed. 1 mL of cell dissociation buffer (Gibco, 13151-014) was added to each 100 mm cell culture dish, and the cells were incubated in an incubator at 37° C. for 5 min. The cells were pipetted using a DMEM cell medium to obtain a single cell suspension, which was then centrifuged at 1000 rpm for 10 min to collect the cell pellet. The cell pellet was resuspended with HEK-Blue™ Detection Medium pre heated to 37° C. The cells were counted and diluted to 220,000 cells/mL. Finally, 180 μL of cell suspension (40,000 cells/well) was added to each well of the 96-well cell culture plate to which the compound had been added, and the cell suspension was mixed with the compound using a pipettor. Final concentrations of the compound were 10 μM, 3.3 μM, 1.1 μM, 0.37 μM, 0.12 μM, 0.04 μM, 0.01 μM, and 0.005 μM. After incubation in an incubator at 37° C. for 16 h, the absorbance was read at 655 nm using an M5e microplate reader (MD, USA).
The EC50 of the compound was calculated using the software GraphPad Prism (GraphPad Software, USA). The background reading of the detection culture was subtracted from the absorbance readings at 655 nm of all wells of the 96-well plate, the ratio of each well to the negative control well (the well without the compound) was calculated, and then the percentage of the ratio of each well to the positive control well (the well treated with 10 μM positive compound), i.e., the percentage of activity, was calculated. Finally, the sigmoidal dose-response (variable slope) curve between the percentage of activity and the concentration of the compound was calculated using the software GraphPad Prism to calculate the EC50 of the compound. […]
As usually defined, the EC50 is the midpoint of the concentration-response curve. Turning to `CCCCOc1nc(N)c2[nH]c(=O)n(Cc3cccc(CN4CCCC4=O)c3)c2n1` [Example 42, 6-amino-2-butoxy-9-(3-((2-oxopyrrolidin-1-yl)methyl)benzyl)-7,9-dihydro-8H-purin-8-one], the EC50 is less than 50 nM. As for `CCCCOc1nc(N)c2[nH]c(=O)n(Cc3ccc(CN4CCCC4)s3)c2n1` [Example 43, 6-amino-2-butoxy-9-((5-(pyrrolidin-1-ylmethyl)thien-2-yl)methyl)-7,9-dihydro-8H-purin-8-one], the EC50 is less than 50 nM. To `CCCCOc1nc(N)c2[nH]c(=O)n(Cc3ccc(CN4CCC(O)C4)s3)c2n1` (centres unmarked) [Example 44, 6-amino-2-butoxy-9-((5-((3-hydroxypyrrolidin-1-yl)methyl)thien-2-yl)methyl)-7,9-dihydro-8H-purin-8-one] belongs less than 50 nM; to `CCCCOc1nc(N)c2[nH]c(=O)n(Cc3ccc(CN4CCN(C(=O)CN)CC4)s3)c2n1` [Example 45, 6-amino-2-butoxy-9-((5-((4-glycylpiperazin-1-yl)methyl)thien-2-yl)methyl)-7,9-dihydro-8H-purin-8-one], less than 50 nM; to `CCCCOc1nc(N)c2[nH]c(=O)n(Cc3ccc(CN4CCNCC4)s3)c2n1` [Example 46], less than 50 nM. Regarding `CCCCOc1nc(N)c2[nH]c(=O)n(Cc3ccc(CN4CCN(C(=O)CO)CC4)s3)c2n1` [Example 47], the EC50 was less than 50 nM. To `CCCCOc1nc(N)c2[nH]c(=O)n(Cc3ccc(CN4CCN(C(=O)COC)CC4)s3)c2n1` [Example 48] belongs less than 50 nM.

In the case of `CCCCOc1nc(N)c2[nH]c(=O)n(Cc3ccc(CN4CCC(N)C4)s3)c2n1` (centres unmarked) [Example 49, 6-amino-9-((5-((3-aminopyrrolidin-1-yl)methyl)thien-2-yl)methyl)-2-butoxy-7,9-dihydro-8H-purin-8-one], the EC50 is less than 50 nM. The value for `CCCCOc1nc(N)c2c(n1)CN(Cc1ccc(C(=O)N3CCCC3)cc1)C(=O)N2` [Example 50, 8-amino-6-butoxy-3-(4-(pyrrolidin-1-ylcarbonyl)benzyl)-3,4-dihydropyrimido[5,4-d]pyrimidin-2(1H)-one] was less than 50 nM; that for `CCCCOc1nc(N)c2c(n1)CN(Cc1ccc(CN3CCCC3)c(C)c1)C(=O)N2` [Example 66] was 50 to 100 nM; that for `CCCCOc1nc(N)c2c(n1)CN(Cc1ccc(Cn3ccnc3)c(C)c1)C(=O)N2` [Example 76] was 50 to 100 nM. The value for `CCCCOc1nc(N)c2c(n1)CN(Cc1ccc(C)c(CN3CCCC3)c1)C(=O)N2` [Example 78] was less than 50 nM. Consider `CCN(CC)Cc1ccc(Cn2c(=O)[nH]c3c(N)nc4ccccc4c32)cc1C` [Example 113], for which the EC50 was 50 to 100 nM. Regarding `Nc1nc2ccccc2c2c1[nH]c(=S)n2Cc1ccc(CN2CCCC2)cc1` [Example 155, 4-amino-1-(4-(pyrrolidin-1-ylmethyl)benzyl)-1,3-dihydro-2H-imidazo[4,5-c]quinoline-2-thione], the EC50 was less than 50 nM. To `CCSc1nc2c(N)nc3ccccc3c2n1Cc1ccc(CN2CCCC2)cc1` [Example 156] belongs less than 50 nM. The value for `COCSc1nc2c(N)nc3ccccc3c2n1Cc1ccc(CN2CCCC2)cc1` [Example 157] was less than 50 nM; that for `CCCSc1nc2c(N)nc3ccccc3c2n1Cc1ccc(CN2CCCC2)cc1` [Example 159] was less than 50 nM. With `CCCCSc1nc2c(N)nc3ccccc3c2n1Cc1ccc(CN2CCCC2)cc1` [Example 161], the EC50 fell in the range of 50 to 100 nM.

As for `Nc1nc2ccccc2c2c1nc(SCC1CC1)n2Cc1ccc(CN2CCCC2)cc1` [Example 163], the EC50 was less than 50 nM. The value for `C=CCCSc1nc2c(N)nc3ccccc3c2n1Cc1ccc(CN2CCCC2)cc1` [Example 165] was 50 to 100 nM; that for `C=CCSc1nc2c(N)nc3ccccc3c2n1Cc1ccc(CN2CCCC2)cc1` [Example 166] was less than 50 nM; that for `N#CCCSc1nc2c(N)nc3ccccc3c2n1Cc1ccc(CN2CCCC2)cc1` [Example 177] was 50 to 100 nM. To `Nc1nc2ccccc2c2c1nc(SCCF)n2Cc1ccc(CN2CCCC2)cc1` [Example 178] belongs 50 to 100 nM; to `Nc1nc2ccccc2c2c1nc(SCC(F)F)n2Cc1ccc(CN2CCCC2)cc1` [Example 179], less than 50 nM; to `Nc1nc2ccccc2c2c1nc(SCCC(F)(F)F)n2Cc1ccc(CN2CCCC2)cc1` [Example 181], less than 50 nM. To `CSc1nc2c(N)nc3ccccc3c2n1Cc1ccc(CNC(C)C)cc1` [Example 188] belongs 50 to 100 nM; to `CSc1nc2c(N)nc3ccccc3c2n1Cc1ccc(CN(C)C)cc1` [Example 189], 50 to 100 nM; to `CCSc1nc2c(N)nc3ccccc3c2n1Cc1ccc(CN(C)C)cc1` [Example 190], 50 to 100 nM. As to `CCSc1nc2c(N)nc3ccccc3c2n1Cc1ccc(CNC(C)C)cc1` [Example 191], the EC50 was less than 50 nM. As for `CSc1nc2c(N)nc3ccccc3c2n1Cc1ccc(-c2cnn(CCNC3CCC3)c2)cc1` [Example 196], the EC50 is 50 to 100 nM. To `CSc1nc2c(N)nc3ccccc3c2n1Cc1ccc(CN2CC(O)C2)cc1` [Example 206] belongs 50 to 100 nM; to `CCSc1nc2c(N)nc3ccccc3c2n1Cc1ccc(CN2CC(O)C2)cc1` [Example 207], 50 to 100 nM; to `CCSc1nc2c(N)nc3ccccc3c2n1Cc1ccc(CN2CC[C@H](O)C2)cc1` [Example 209], 50 to 100 nM.

On to `C=CCSc1nc2c(N)nc3ccccc3c2n1Cc1ccc(CN2CC[C@H](F)C2)cc1` [Example 210], for which the EC50 lay in the range of 50 to 100 nM. To `C=CCSc1nc2c(N)nc3ccccc3c2n1Cc1ccc(CN2CC[C@@H](F)C2)cc1` [Example 211] belongs 50 to 100 nM. On to `CSc1nc2c(N)nc3ccccc3c2n1Cc1ccc(N2CCN(C)CC2)cc1` [Example 212], for which the EC50 was less than 50 nM.

`CSc1nc2c(N)nc3ccccc3c2n1Cc1ccc(CN2CCNCC2)cc1` [Example 213]: the EC50 lay in the range of 50 to 100 nM. To `CCSc1nc2c(N)nc3ccccc3c2n1Cc1ccc(CN2CCNCC2)cc1` [Example 214] belongs 50 to 100 nM.
